Reference: patent publication EP0018104A2, “Tetrahydroisoquinolines, their production and the compounds and pharmaceutical compositions containing them for use in the prevention or treatment of hypertension” (Takeda Chemical Industries, Ltd., priority 1979, dated 1980)
Read-outs that look alike come from different tables or passages of the source.

How the values were obtained:
[1] = molecular target: T1, angiotensin I converting enzyme (ACE) (Oryctolagus cuniculus, UniProt P12822); experiment: Inhibition of angiotensin I converting enzyme (HHL substrate, hippuric acid colorimetry, modified Cushman method); format: biochemical, albino rabbit; conditions: ACE from rabbit lung, 37°C, one hour, read-out: Inhibitory Activity on ACE (%); for inhibition at 1 µM: Concentration 1 µM; for inhibition at 10 µM: Concentration 10 µM
T1 construct: prepared from the lungs of albino rabbit according to the method described by Wallace et al; from tissue; host or cells: lungs of albino rabbit
T1 sequence (P12822 34-1310): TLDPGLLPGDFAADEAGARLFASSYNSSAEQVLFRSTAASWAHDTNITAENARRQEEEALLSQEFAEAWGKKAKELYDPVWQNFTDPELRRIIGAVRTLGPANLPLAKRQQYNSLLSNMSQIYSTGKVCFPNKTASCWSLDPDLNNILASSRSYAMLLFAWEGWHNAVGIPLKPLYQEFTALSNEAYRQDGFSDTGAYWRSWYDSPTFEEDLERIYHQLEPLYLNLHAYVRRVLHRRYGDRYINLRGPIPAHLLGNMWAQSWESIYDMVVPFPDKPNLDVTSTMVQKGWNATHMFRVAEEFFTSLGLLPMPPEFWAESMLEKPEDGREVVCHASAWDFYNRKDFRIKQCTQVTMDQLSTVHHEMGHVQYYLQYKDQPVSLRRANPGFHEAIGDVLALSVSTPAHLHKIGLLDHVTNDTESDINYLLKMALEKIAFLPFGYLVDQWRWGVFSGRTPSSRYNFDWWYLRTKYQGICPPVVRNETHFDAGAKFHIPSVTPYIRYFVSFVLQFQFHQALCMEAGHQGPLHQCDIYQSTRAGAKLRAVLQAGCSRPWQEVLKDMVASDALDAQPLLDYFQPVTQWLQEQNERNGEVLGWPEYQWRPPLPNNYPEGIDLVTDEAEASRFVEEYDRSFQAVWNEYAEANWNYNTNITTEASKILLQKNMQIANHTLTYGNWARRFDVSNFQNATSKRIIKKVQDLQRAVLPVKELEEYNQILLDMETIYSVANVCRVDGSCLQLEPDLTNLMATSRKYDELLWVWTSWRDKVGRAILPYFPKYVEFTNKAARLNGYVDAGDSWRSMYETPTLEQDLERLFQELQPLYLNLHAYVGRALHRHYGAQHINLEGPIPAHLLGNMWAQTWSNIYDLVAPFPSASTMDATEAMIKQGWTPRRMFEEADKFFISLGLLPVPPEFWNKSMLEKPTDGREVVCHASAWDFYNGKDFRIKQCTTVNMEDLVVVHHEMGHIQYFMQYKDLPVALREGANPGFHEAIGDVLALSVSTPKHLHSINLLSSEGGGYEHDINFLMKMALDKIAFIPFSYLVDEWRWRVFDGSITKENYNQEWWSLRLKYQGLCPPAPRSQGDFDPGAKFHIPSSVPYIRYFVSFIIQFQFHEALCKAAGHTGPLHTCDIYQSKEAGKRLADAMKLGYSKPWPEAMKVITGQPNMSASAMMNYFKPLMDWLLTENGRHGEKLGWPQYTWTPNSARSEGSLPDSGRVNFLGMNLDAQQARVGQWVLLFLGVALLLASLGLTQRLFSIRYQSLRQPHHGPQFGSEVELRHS
Experimental: Inhibitions of Angiotensin I Converting Enzyme by the Compounds of this Invention.
The experiment was conducted in accordance with a modification of the method described by Cushman et al. [Biochemical Pharmacology, Vol. 20, p1637(1971)] using an angiotensin I converting enzyme (ACE) prepared from the lungs of albino rabbit according to the method described by Wallace et al. [American Journal of Physiology, Vol 234, page R141(1978)]. That is, using hippuryl-L-histidyl-L-leucin (HHL) as the substrate, the ACE inhibitory activity was determined in terms of percentage inhibitation on the amount of hippurie acid produced by ACE when the present compound was added. A solution of the compound of the present invention dissolved in an 0.02 to 2% dimethyl sulfoxide-500 mMpotassium phosphate buffer solution (pH 8.3, containing 300 mM sodium chloride) was added to 100 µℓ of ACE (protein concentration, 20 mg/mℓ) and 100 µℓ of 1.25 mM HHL. In this experiment a potassium phosphate buffer solution containing dimethyl sulfoxide at a concentration equal to that of the test solution was used as a control. After incubating the solution at 37°C for one hour, 150 µℓ of 1N hydrochloric acid were added to the solution to terminate the reaction. After 1 mℓ of ethyl acetate was added, the solution was centrifuged at 3000 r.p.m. for 10 minutes. An 0.5 mℓ aliquot was separated from the ethyl acetate layer and dried at a temperature below 50°C under a nitrogen. gas stream. The residue was mixed with mℓ of 1M aqueous sodium chloride and the mixture was subjected to colorimetry at a wavelength of 228 nm.

[2] = tested on: Hypertensive Activity of Angiotensin I; experiment: Effect against hypertensive activity of angiotensin I in anaesthetized-cannulated rats after oral dosing; format: in vivo, Male rats (Sprague-Dawley); conditions: Rattus norvegicus, 138 µM/kg orally, corrected by angiotensin II response
Experimental: Male rats (Sprague-Dawley) weighing 230 to 350 g, which were fed under free access to drinking water and feeds, were used as experimental animals. The rats were anaesthetized with intraperitoneal administration of pentobarbital sodium (50 mg/kg) on the day before the test day, and a polyethylene tube was inserted into each femoral artery for measurement of blood pressare and the femoral vein for injection of angiotensin I and II, and then the tubes were fixed.
On the test day, an average blood pressure in the control phase was recorded on an electric haemedynamemeter (MP-4T model manufactured by Nippon Koden, Japan) and, thereafter, angiotensin I and then angionensin II were injected through the femoral vein at a dose of […] and 100 ng/kg, respectively, to measure the hypertensive activity. Then, 138 µM/kg of the compound of this invention were administrated orally as an aqueous solution or an aqueous gum arabic suspension, […], angiotensin I and II were injected repeatedly to trace hypertensive reactions. In calculating the percentage inhibition to the hypertensive activity of angiotensin 1, the percentage inhibitory value was corrected based on the variation with time in the hypertensive reaction by anziotensin II.

[3] = 20 min, After 20 min, read-out: Percent Inhibition (%) against Hyper-tensive Reaction by Angiotensin I After 20 min
[4] = 1 h, After 60 min, read-out: Percent Inhibition (%) against Hyper-tensive Reaction by Angiotensin I After 60 min
[5] = 2 h, After 120 min, read-out: Percent Inhibition (%) against Hyper-tensive Reaction by Angiotensin I After 120 min

Structure (SMILES)	inhibition at 1 µM [1]	inhibition at 10 µM [1]	inhibition in vivo at 138 µM, 138 µmol/kg [2, 3]	inhibition in vivo at 138 µM, 138 µmol/kg [2, 4]	inhibition in vivo at 138 µM, 138 µmol/kg [2, 5]
COc1cc2c(cc1O)CN(C(=O)C(C)CSC(C)=O)C(C(=O)O)C2 (centres unmarked) [Example 14, 2-(3-acetylthio-2-methylpropionyl)-7-hydroxy-6-methoxy-1,2,3,4-tetrahydroisoquinoline-3-carbxylic acid]	33%	90%			
CC(=O)SCC(C)C(=O)N1Cc2cc(N3CCCC3)ccc2CC1C(=O)O (centres unmarked) [Example 43]			100%	95%	87%
CC(=O)SCC(C)C(=O)N1[C@H](C)c2cc(O)c(O)cc2C[C@H]1C(=O)O (some centres unmarked) [Example 5, (M, 3S)-2-(5-acetylthio-2-methylpropionyl)-6,7-dihycroxy-1-methyl-1,2,3,4-tetrahydroisquinoline-3-carboxylie acid]			84%	98%	96%
CC(=O)SCC(C)C(=O)N1Cc2cc(Br)ccc2CC1C(=O)O (centres unmarked) [Example 42, 2-(3-acetylthio-2-methylpropiony)-7-tromo-1,2,3,4-tetrahydroisoquinoline-3-carboxylic acid]	69%	93%			
CC(=O)SCC(CSC(C)=O)C(=O)N1Cc2ccc(O)cc2CC1C(=O)O (centres unmarked) [Example 60, 2-(3-acetylthio-2-acetylthiomethylpropionyl)-6-hydroxy-1,2,3,4-tetrahydroisoquinoline-3-carboxylic acid]			82%	77%	71%
O=C(O)C1Cc2cc3c(cc2CN1C(=O)C(CS)CS)OCO3 (centres unmarked) [Example 69, 2-(3-mercapto-2-mercapthylpropionyl)-6,7-methylenedioxy-1,2,3,4-tetrahydroisooquinoline-3-carboxylic acid]			95%	77%	76%
CC(=O)SCC(C)C(=O)N1Cc2cc(C)ccc2CC1C(=O)O (centres unmarked) [Example 7]	63%	88%			
COc1cc2c(cc1OC)CN(C(=O)C(C)CSC(C)=O)C(C(=O)O)C2 (centres unmarked) [Example 6, 2-(3-acetylthio-2-methylpropionyl)-6,7-dimethoxy-1,2,3,4-tetrahydroisoquinoline-3-carboxylic aeid]	62%	99%			
CC(CS)C(=O)N1Cc2cc(C(C)(C)C)ccc2C[C@H]1C(=O)O (stereo partly drawn) [Example 51, (3S)-7-tert-butyl-2-(3-mercapto-2-methylproplonyl)-1,2,3,4-tetrahydroisoquinoline-3-carboxylic acid]			100%	100%	78%
COc1ccc2c(c1)CN(C(=O)C(C)CSC(C)=O)C(C(=O)O)C2 (centres unmarked) [Example 23, 2-(3-acetylthio-2-methylpropionyl)-7-methoxy-1,2, 3.4-tetrahydroisoquinoline-3-carboxylic acid]			80%	82%	87%
CC(=O)SCC(CSC(C)=O)C(=O)N1Cc2cc3c(cc2CC1C(=O)O)CCCC3 (centres unmarked) [Example 58, 2-(3-acetylthio-2-acetylthiomethylpropionyl)-1,2,3,4,6,7,8,9-octahydrobenzo[g]isoquinoline-3--carboxylic aeid]			80%	78%	66%
CC(=O)SCC(C)C(=O)N1Cc2cc(O)c(O)cc2C[C@H]1C(=O)O (stereo partly drawn) [Example 1, (3S)-2-(3-acetylthio-2-methylpropionyl)-6,7-dihydroxy-1,2,3,4-tetrahydroisoquinoline-5-carboxylie aeid]	23%	87%			
CC(=O)SCC(CSC(C)=O)C(=O)N1Cc2cc(C(C)C)ccc2CC1C(=O)O (centres unmarked) [Example 61, 2-(3-aeetylthio-2-acetylthiomethylpropionyl)-7-isopropyl-1,2,3,4-tetrahydroisoquinoline-3-carboxylic acid]			78%	84%	58%
CC(=O)SCC(C)C(=O)N1Cc2cc(N3CCCCC3)ccc2CC1C(=O)O (centres unmarked) [Example 44, 2-(3-acetylthio-2-methylpropionyl)-7-piperidino-1,2,3,4-tetrahydroisoquinoline-3-carbozylic acid]	66%	97%			
CC(=O)SCC(C)C(=O)N1Cc2cc(CC(C)C)ccc2CC1C(=O)O (centres unmarked) [Example 34, 2-(3-acetylthio-2-methylpropionyl)-7-isobutyl-1,2,3,4-tetrahydroisoquinoline-3-carboxylic acid]	63%	94%			
CC(=O)SCC(C)C(=O)N1Cc2cc3c(cc2CC1C(=O)O)CCCC3 (centres unmarked) [Example 4]			90%	79%	63%
CC(=O)SCC(CSC(C)=O)C(=O)N1Cc2cc(O)c(O)cc2C[C@H]1C(=O)O [Example 56, (S)-2-(3-acetylthio-2-acetylthiomethyl-propionyl)-6,7-dihydroxy-1,2,3,4-tetrahydroisoquinoline-3-carboxylic acid]			80%	84%	69%
CC(=O)SCC(C)C(=O)N1Cc2cc(C(C)(C)C)ccc2CC1C(=O)O (centres unmarked) [Example 3, 2-(3-acetylthio-2-methylpropionyl)-7-tert-utyl-1,2,3,4-tetrahydroisoquinoline-3-carboxylic acid]			86%	94%	90%
